Assay results: US12409161B2, “Compound for treating neurodegenerative disorders” (FUDAN UNIVERSITY, priority 2019, dated 2025)

Key:
[1] = target: T1, mutant ATXN1 protein (His-ATXN1-Q92) (Homo sapiens, UniProt P54253, INS208QQQQQQQQQQQQQQQQQQQQQQQQQQQQQQQQQQQQQQQQQQQQQQQQQQQQQQQQQQQQQQQQQQQQQQQQQQQQQQQQ); test: HTRF of mutant ATXN1 level in HEK293T cells expressing His-ATXN1-Q92; type: cell-based; details: 100 nM for 2 days, HTRF anti-His-Tb/MW1-D2
T1 construct: expressed in transfected cells; host or cells: HEK293T (ATCC, CRL-3216)
T1 sequence (P54253 with tags, fused parts or gaps with the stated changes): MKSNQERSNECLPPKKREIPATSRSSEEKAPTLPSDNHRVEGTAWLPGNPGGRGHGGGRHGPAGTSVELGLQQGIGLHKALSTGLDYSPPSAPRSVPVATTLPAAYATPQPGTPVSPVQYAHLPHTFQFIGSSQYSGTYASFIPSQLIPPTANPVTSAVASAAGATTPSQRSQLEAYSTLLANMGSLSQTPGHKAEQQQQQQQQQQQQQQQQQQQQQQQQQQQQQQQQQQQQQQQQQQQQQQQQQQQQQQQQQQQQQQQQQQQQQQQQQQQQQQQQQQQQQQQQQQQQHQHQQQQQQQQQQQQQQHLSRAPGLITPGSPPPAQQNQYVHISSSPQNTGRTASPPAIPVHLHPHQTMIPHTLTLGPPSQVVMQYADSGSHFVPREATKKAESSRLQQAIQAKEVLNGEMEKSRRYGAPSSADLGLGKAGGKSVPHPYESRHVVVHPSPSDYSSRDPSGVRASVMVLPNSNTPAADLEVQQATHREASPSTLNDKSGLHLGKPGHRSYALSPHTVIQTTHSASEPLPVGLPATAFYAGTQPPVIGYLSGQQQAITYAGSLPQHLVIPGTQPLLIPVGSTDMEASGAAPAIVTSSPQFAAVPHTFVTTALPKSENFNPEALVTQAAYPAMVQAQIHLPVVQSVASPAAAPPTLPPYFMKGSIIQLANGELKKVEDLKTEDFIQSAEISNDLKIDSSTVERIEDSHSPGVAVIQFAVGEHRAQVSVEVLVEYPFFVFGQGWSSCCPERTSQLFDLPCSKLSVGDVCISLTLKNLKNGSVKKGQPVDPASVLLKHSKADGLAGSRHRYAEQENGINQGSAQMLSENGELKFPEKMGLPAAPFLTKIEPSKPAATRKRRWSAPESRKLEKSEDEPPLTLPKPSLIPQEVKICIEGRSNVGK

mHTT [2] = target: T2, mHTT (Homo sapiens, UniProt P42858, INS38QQQQQQQQQQQQQQQQQQQQQQQQQQ); test: HTRF of mHTT in HD patient iPSC-derived neurons (Q47); type: cell-based
T2 construct: endogenous in cells; host or cells: HD patient iPSC-derived neurons (Q47)
T2 sequence (P42858 with tags, fused parts or gaps, stated change not applied): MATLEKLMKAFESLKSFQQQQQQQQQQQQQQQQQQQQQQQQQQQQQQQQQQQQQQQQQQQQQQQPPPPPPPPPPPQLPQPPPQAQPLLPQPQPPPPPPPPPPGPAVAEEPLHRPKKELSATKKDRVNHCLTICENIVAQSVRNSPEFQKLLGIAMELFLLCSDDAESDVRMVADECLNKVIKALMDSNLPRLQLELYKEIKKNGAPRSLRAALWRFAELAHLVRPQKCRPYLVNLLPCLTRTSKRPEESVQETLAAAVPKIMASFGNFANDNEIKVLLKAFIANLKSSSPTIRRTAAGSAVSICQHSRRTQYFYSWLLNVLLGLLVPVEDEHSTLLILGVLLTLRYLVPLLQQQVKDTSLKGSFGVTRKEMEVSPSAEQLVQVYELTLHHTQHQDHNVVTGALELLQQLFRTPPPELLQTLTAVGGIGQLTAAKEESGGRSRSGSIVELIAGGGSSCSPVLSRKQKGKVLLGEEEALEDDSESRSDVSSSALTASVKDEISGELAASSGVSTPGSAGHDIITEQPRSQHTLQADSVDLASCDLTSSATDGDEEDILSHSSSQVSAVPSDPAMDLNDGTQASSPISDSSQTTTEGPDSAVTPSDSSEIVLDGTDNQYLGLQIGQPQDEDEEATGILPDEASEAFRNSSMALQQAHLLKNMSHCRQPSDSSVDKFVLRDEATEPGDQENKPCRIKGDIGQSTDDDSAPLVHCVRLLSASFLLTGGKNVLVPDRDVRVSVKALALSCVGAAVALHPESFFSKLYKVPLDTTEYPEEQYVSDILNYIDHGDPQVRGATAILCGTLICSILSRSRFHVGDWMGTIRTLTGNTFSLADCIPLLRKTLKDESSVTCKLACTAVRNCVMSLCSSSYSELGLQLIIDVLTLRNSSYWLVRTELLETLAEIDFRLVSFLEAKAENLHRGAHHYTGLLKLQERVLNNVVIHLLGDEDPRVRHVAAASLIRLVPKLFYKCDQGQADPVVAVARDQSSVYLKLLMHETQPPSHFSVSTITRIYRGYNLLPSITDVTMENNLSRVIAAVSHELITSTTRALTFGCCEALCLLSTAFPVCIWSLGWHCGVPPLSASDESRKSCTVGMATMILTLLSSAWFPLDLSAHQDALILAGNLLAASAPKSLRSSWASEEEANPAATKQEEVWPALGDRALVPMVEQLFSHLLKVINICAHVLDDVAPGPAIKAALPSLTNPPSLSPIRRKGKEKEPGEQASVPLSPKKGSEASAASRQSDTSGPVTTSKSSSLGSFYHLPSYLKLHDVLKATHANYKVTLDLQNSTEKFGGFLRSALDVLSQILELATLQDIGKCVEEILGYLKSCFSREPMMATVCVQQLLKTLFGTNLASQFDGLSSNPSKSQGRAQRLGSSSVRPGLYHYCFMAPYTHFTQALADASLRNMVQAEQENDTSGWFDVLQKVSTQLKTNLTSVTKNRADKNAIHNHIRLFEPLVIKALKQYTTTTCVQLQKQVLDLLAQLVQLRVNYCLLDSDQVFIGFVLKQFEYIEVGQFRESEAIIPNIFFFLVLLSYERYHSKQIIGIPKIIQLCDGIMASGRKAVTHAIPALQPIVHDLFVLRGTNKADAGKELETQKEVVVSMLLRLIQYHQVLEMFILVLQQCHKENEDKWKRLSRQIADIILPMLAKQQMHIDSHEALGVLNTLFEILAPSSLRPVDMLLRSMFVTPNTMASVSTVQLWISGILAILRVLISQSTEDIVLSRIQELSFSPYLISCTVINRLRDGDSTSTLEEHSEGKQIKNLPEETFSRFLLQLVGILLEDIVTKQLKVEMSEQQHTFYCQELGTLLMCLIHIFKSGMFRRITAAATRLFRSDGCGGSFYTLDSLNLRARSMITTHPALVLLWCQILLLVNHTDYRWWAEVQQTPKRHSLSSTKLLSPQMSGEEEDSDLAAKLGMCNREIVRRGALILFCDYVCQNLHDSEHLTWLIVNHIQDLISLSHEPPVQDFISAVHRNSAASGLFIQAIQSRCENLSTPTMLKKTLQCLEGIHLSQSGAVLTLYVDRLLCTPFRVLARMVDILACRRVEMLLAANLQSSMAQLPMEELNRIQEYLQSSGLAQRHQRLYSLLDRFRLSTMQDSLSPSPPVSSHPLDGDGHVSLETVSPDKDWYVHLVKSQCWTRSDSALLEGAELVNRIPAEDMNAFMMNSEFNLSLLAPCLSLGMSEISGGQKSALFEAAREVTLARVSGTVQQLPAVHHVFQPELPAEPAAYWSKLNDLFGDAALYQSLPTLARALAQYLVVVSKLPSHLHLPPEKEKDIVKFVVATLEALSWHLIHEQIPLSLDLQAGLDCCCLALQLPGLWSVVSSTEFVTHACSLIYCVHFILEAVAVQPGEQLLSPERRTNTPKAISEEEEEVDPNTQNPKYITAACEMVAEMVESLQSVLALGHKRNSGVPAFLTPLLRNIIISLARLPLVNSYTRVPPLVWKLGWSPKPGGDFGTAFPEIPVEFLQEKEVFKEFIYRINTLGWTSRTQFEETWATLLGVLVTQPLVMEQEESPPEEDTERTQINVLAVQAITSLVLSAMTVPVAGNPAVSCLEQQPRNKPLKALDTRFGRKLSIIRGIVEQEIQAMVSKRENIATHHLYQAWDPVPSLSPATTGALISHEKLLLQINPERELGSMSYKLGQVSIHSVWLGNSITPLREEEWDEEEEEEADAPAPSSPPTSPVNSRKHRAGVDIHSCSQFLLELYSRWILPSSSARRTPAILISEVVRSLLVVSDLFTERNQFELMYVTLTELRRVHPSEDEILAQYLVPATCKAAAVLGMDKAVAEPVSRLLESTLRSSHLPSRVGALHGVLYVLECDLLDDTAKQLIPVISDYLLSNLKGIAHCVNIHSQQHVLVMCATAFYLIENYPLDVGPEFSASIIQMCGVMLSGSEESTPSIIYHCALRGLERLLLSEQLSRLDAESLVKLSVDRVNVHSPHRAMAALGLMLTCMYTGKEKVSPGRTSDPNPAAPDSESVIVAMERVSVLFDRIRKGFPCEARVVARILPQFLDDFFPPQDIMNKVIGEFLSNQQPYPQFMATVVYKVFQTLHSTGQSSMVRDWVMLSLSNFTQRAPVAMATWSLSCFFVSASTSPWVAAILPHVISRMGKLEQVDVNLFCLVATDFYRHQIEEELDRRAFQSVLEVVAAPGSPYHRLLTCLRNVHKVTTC

[3] = target: T3, wild-type ATXN3 protein (ATXN3-Q27) (Homo sapiens, UniProt P54252, G306R/INS305QQQQQQQQQQQQQQQQQ/V212M); test: Western-blot of ATXN3 level in fibroblasts; type: cell-based; details: 100 nM compound 1 or 50 nM compound 2 for 2 days; Western-blots
T3 construct: endogenous in cells; host or cells: wild-type fibroblasts (Q27), and possibly the normal allele of SCA3 patient fibroblasts
T3 sequence (P54252 with tags, fused parts or gaps isoform P54252-1 with the stated changes): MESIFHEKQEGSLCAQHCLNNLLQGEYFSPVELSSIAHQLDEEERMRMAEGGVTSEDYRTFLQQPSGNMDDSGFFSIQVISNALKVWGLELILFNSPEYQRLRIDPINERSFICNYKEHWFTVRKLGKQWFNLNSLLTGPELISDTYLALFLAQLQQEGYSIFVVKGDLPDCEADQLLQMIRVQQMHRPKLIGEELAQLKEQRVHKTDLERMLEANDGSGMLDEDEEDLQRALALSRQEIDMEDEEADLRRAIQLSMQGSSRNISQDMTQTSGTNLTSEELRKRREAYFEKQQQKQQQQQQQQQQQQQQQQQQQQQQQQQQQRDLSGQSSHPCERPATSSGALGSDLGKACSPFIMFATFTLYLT
Method: (§1) Some primary patient fibroblasts and wild-type cells are from HD patients (Q47, Q55) of the Mongolian Huntington's disease family and healthy controls (WT, Q19). SCA3 cell line was from patient (Q74). The HD Q68 fibroblast cell line was from Coriell Cell Repositories (Camden, N.J., USA). Immortalized fibroblasts and induced stem cells (iPSCs) are prepared from primary fibroblasts. HEK293T cells were from ATCC.
(§2) Then the levels of mutant ATXN3 protein (ATXN3-Q74, SEQ ID NO: 3) and wild-type ATXN3 protein (ATXN3-Q27, SEQ ID NO: 4) were determined by Western-blots (FIG. 22). […] Therefore, the compound can be used to treat SCA3.

mHTT [4] = test: Western-blot of HTT levels in primary cultured Hdh^Q140/Q7 mouse cortical neurons; type: cell-based; details: treated 2 days, Western-blots (antibody 2166)
Method: (§3) Primary cultured cortical neurons: The brains of Hdh^Q140/Q7 and Hdh^Q7/Q7 newborn mice (P0) were dissected, digested, dissociated, and cultured.
(§4) (1) The primary cultured Hdh^Q140/Q7 and Hdh^Q7/Q7 mouse cortical neuron cells were treated with the compound for 2 days. Then the levels of mHTT and wtHTT were detected by Western-blots (antibody 2166) (FIG. 4 and FIG. 5). […]

Q72-GFP = test: Level of polyQ-GFP fusion protein in HEK293T cells (Incucyte fluorescence counting); type: cell-based; details: 100 nM compound 1 or 50 nM compound 2 for 2 days
From the text: (§5) The inventors used HEK293T cells exogenously expressing polyQ-GFP fusion proteins (Q72-GFP or Q25-GFP) to detect compounds that can control the level of proteins containing expanded polyglutamine in the cells. The method was as follows:
(§6) (1) PolyQ-GFP cDNA sequence (expressing Met-polyQ-GFP, wherein polyQ was Q72 or Q25) was synthesized de novo and subcloned into pcDNA vector. It was transfected into HEK293T cells (ATCC, CRL-3216) through forward transfection to obtain Q72-GFP expressing cells and Q25-GFP expressing cells, respectively. And the same method was used to obtain cells expressing Q53-GFP, cells expressing Q46-GFP, and cells expressing Q38-GFP.
(§7) (3) The Q72-GFP expressing cells and Q25-GFP expressing cells obtained in step (1) were used. […] Then the level of polyQ-GFP was measured by Incucyte fluorescence counting (FIG. 1).

Q25-GFP [5] = test: as above; type: cell-based; details: 100 nM compound 1 or 50 nM compound 2 for 2 days
From the text: as §5, §6, §7

[6] = target: T4, human HTT full-length protein (Q128) (Homo sapiens, UniProt P42858); test: mHTT level in heads of Huntington's disease Drosophilae (HTRF); type: in vivo, Drosophila; details: food with 10 μM in 400 μL DMSO, 6 days, head protein, HTRF 2B7/MW1
T4 construct: transgenic Drosophilae expressing human HTT full-length protein (Q128); tissue Bloomington Drosophila Stock Center (fly lines); host or cells: heads of elav-GAL4 x UAS-fl-HTT-Q128 Drosophila
Method: Crosses were set up between virgin female Drosophilae carrying elav-GAL4 driver and the UAS-fl-HTT-Q16 or UAS-fl-HTT-Q128 male Drosophilae to generate a transgenic Drosophilae driven by elav-GAL4 to express human HTT full-length protein (Q16) or (Q128) in the nervous system.
The negative control group was given the corresponding solvent DMSO, and the positive drug groups was given the corresponding positive drug.
Drosophilae were kept in standard food at 25° C. The newly hatched Drosophilae were transferred to vials with food containing the positive drug (10 μM in 400 μL DMSO) or DMSO for control. The corn food was changed every other day.
The mHTT level was measured by HTRF (antibody pair: 2B7/MW1), where each sample included head proteins from five Drosophila (FIG. 14).

[7] = system: HD patient iPSC-derived neurons (Q47); test: Neuronal apoptosis of HD patient iPSC-derived neurons after BDNF removal (TUBB3 immunostaining, caspase-3 activity); type: cell-based, human; details: 100 nM compound 1 or 50 nM compound 2 for 1 day, then BDNF removal
Method: Immunofluorescence: cells were washed, fixed, permeabilized and blocked, then incubated with primary antibody overnight at 4° C., then washed three times with blocking buffer, and incubated with secondary antibody for 1 hour at room temperature, stained with DAPI, and mounted. Images were taken by Zeiss Axio Vert A1 confocal microscope. TUBB3 or co-localization was analyzed using ImageJ.
Then the cells were stressed (by BDNF removal).
Neuronal specific tubulin marker TUBB3 […]. The TUBB3 signal covered area was normalized to the cell nuclei counts, and the data was normalized to the wild type controls to analyze neuronal apoptosis (FIG. 12).
NucView 488 (Biotium, 30029) was used to detect active caspase-3. After removing BDNF, Incucyte (Essen Bioscience, IncuCyte FLR) was used to capture images every 3 hours in the incubator, which were analyze with Incucyte 2011A software. Three batches were tested and the results were consistent (FIG. 13).

wtHTT [8] = target: T5, wtHTT (Mus musculus, UniProt P42859); details: Hdh^Q140/Q7 mouse cortical neurons, treated 2 days, Western-blots (antibody 2166)
Method: as §3
(1) The primary cultured Hdh^Q140/Q7 and Hdh^Q7/Q7 mouse cortical neuron cells were treated with the compound for 2 days.

[9] = target: T6, mutant ATXN3 protein (ATXN3-Q74) (Homo sapiens, UniProt P54252, G306R/INS305QQQQQQQQQQQQQQQQQQQQQQQQQQQQQQQQQQQQQQQQQQQQQQQQQQQQQQQQQQQQQQQQ/V212M); test: Western-blot of ATXN3 level in SCA3 patient fibroblasts (Q74); type: cell-based; details: 100 nM compound 1 or 50 nM compound 2 for 2 days, Western-blots
T6 construct: endogenous in cells; host or cells: SCA3 patient fibroblasts (Q74)
T6 sequence (P54252 with tags, fused parts or gaps isoform P54252-1 with the stated changes): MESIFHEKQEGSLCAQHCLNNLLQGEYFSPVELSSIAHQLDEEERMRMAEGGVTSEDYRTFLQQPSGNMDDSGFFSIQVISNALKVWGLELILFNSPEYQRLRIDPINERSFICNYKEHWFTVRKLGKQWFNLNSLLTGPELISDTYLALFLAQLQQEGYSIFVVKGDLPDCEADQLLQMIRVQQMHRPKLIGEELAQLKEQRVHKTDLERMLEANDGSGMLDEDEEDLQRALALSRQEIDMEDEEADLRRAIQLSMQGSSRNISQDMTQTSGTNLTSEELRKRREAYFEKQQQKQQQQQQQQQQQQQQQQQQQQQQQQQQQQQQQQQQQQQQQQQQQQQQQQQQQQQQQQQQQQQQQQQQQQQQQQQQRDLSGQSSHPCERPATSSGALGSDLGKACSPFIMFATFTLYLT
Method: as §1, §2

[10] = target: T7, full-length mHTT (flHTT-Q73) (Homo sapiens, UniProt P42858, INS38QQQQQQQQQQQQQQQQQQQQQQQQQQQQQQQQQQQQQQQQQQQQQQQQQQQQ); test: OI-RD detection of affinity to full-length HTT; type: binding
T7 construct: protein A (N, cleaved yes); made in house; host or cells: human embryonic kidney E293 cells
Method: (1) The human HTT gene (GenBank: NM_002111.8) with (CAG)23 or (CAG)73 was synthesized de novo by Genewiz Inc. The human HTT gene was cloned into the modified pCAG vector (from Addgene) with N-terminal protein A tag.
The protein is purified with IgG monoclonal antibody-agarose (Smart-lifesciences, SA030010), digested with TEV protease to remove the protein A tag, and further purified with Mono Q and Superose 6 (5/150 GL) columns from GE healthcare. Validation is conducted using Coomassie blue staining and Western-blots.

wtHTT [11] = target: T5, wtHTT; test: Western-blot of HTT levels in primary cultured Hdh^Q7/Q7 mouse cortical neurons; type: cell-based; parameters: endogenous in cells; host or cells: primary cortical neurons of newborn Hdh Q140/Q7 or Hdh Q7/Q7 mice; details: treated 2 days, Western-blots (antibody 2166)
Method: as §3, §4

mHTT [12] = test: Intracerebroventricular injection: mHTT and wtHTT levels in cortices of HD mice (Western-blots); type: in vivo, mouse; details: Hdh^Q140/Q7 mice; icv 2 μL of 25 μM per day, 10 days; Western-blots (antibody 2166)
Method: Mice expressing wild-type HTT gene (Hdh^Q7/Q7) were from the Marian Difiglia laboratory of Massachusetts General Hospital, Harvard University.
Experimental animals: Hdh^Q140/Q7 mice (3 months old), 4 in each group.
Each test includes three repetitions for each sample, and the mean values was calculated (FIG. 17).

Q25-GFP [13] = details: MST; 20 mM HEPES, pH 7.4, 150 mM NaCl; protein 500 nM
mHTT aggregates = mHTT aggregates in cortices of Hdh^Q140/Q7 mice (dot-blot, HTRF 4C9/4C9); type: in vivo, mouse; details: ip-injection, dot-blot 4C9 and HTRF 4C9/4C9
Method: (§8) Experimental method: The compound or control DMSO was diluted with 0.9% NaCl intravenous infusion solution to 0.05 μg/μL. One ip-injection (0.5 mg/kg) was conducted per day. After 14 days of injection, tissue extraction or behavioral experiment were conducted.
(3) mHTT aggregates in the cortices of Hdh^Q140/Q7 mice were detected by dot-blot experiment (antibody: 4C9, bar plot showing the results of two repetitions) and HTRF (antibody pair: 4C9/4C9). Sampling was repeated for each mouse two to three times on average (FIG. 20).

[14] = In vivo compound detection in brain tissues of ip-injected mice (LC-MS/MS); details: mouse, 2 hours after ip-injection (0.5 mg/kg), read-out: level of compound reached the brain tissue
Method: as §8
In vivo compound detection in brain tissues of ip-injected mice: 2 hours after ip-injection of DMSO or compound in mice, the brain was dissected, weighed, and the compound in the brain tissue was extracted, analyzed with UPLC-MS (Acquity Ultra Performance Liquid Chromatography System, Acquity UPLC BEH C18 (1.7 μm, 2.1×50 mm) column and Xevo TQ-S mass spectrometer, Waters Corporation, Milford, MA, USA) for LC-MS/MS analysis. […] The compound of the present invention can be delivered to the brain of mice through the BBB smoothly, which potentially facilitates oral administration of the compound.

mHTT [15] = test: Intraperitoneal injection: mHTT and wtHTT levels in cortices and striata of HD mice (Western-blots); type: in vivo, mouse; details: Hdh^Q140/Q7 mice, ip 0.5 mg/kg per day, 14 days
Method: as §8
(1) 13 Hdh^Q140/Q7 mice (5 months old) were randomized into 2 groups.
One ip-injection was conducted per day. After 14 days of injection, the protein was extracted and the levels of mHTT and wtHTT in the cortices of HD mice were detected by Western-blots (FIG. 18).
(2) A total of 13 mice Hdh^Q140/Q7 mice (10 months old) were used, 6-7 mice in each group. According to the above method, the mouse brain striatum neuronal protein was extracted and the levels of mHTT and wtHTT were detected by Western-blots (FIG. 19).

mHTT [16] = test: HTRF of mHTT in HD patient immortalized fibroblasts; details: at different doses (FIG. 10)
Method: Homogeneous time-resolved fluorescence (HTRF) analysis: the cell or tissue lysate was diluted with the original lysis buffer PBS+1% (v/v) Triton X-100+1×cOmplete™ protease inhibitor to lyse the sample, then HTRF assay buffer (50 mM NaH2PO4, 400 mM NaF, 0.1% BSA, 0.05% (v/v) Tween-20, 1% (v/v) Triton X-100, pH 7.4) was used to dilute the specified antibody pair for detection. In HTRF buffer, the donor antibody concentration was 0.023 ng/μL and the acceptor antibody concentration was 1.4 ng/μL.

[17] = target: T8, normal ATXN3 protein (MBP-ATXN3-Q28) (Homo sapiens, UniProt P54252, INS305QQQQQQQQQQQQQQQQQQ); test: MST detection of affinity to ATXN3; type: binding; details: method in 2.2
T8 construct: His8; made in house; host or cells: Escherichia coli Rosetta(DE3)pLysS
Method: (1) His8 tag and TEV protease cleavage site is added in pMal-C2x plasmid (from New England Biolabs) to prepare prokaryotic expression vector pMBP. The ATXN3 gene (GenBank: NM_001127696.2) is edited to control the length of the expanded polyglutamine, the gene is amplified and cloned into the prepared pMBP to obtain the pMBP-ATXN3-Q28 and pMBP-ATXN3-Q68 plasmids with polyQ repeated 28 and 68 times, respectively.
(2) The expression plasmids pMBP-ATXN3-Q28 and pMBP-ATXN3-Q68 were introduced into Escherichia coli Rosetta(DE3)pLsyS for expression. Preliminary purification was conducted with HisTrap HP column (GE Healthcare, 17524701). The product was concentrated by ultrafiltration and then further purified with Superose 6 Increase 10/300 GL size exclusion column (GE Healthcare).
(3) As verified by SDS-PAGE, the purity of the prepared human MBP-ATXN3-Q28 and MBP-ATXN3-Q68 exceeds 98%.

Row | SMILES | levels of mutant ATXN1 [1] | wild-type ATXN3 protein level [3] | level of mHTT in cortical neurons (mHTT [4]) | level of the protein containing expanded polyglutamine (Q72-GFP) (Q72-GFP) | level of the protein containing the shorter polyglutamine (Q25-GFP) (Q25-GFP [5]) | loss of processes and shrinkage of HD neurons after removal of BDNF [7] | mutant ATXN3 protein level [9] | other results
1 | O=c1cc(-c2ccccc2)c2ccc(O)c(O)c2o1 [compound 6] | Decreased levels |  |  |  |  |  |  | 
2 | COc1ccc2c(c1)/C(=C/c1cnc[nH]1)C(=O)N2 [compound 4, Su9516] | Decreased levels |  |  |  |  |  |  | 
3 | CC(=O)Nc1cc2ccccc2oc1=O [compound 5] |  |  |  |  |  |  |  | reduction of mHTT levels in HD patient iPSC-derived neurons (mHTT [2]; HTRF 2B7/MW1, same method as for compounds 1 and 2): approximately 26.8%
4 | Cc1ccc(C(=O)N(CCCN)[C@@H](c2nc3cc(Cl)ccc3c(=O)n2Cc2ccccc2)C(C)C)cc1 [compound 1, ispinesib] | Decreased levels | no decrease | reduced | effectively reduced | did not reduce | significantly improved | decrease | mHTT levels in transgenic Drosophilae [6]: reduced; level of wtHTT in cortical neurons (wtHTT [8]): hardly affected; Kon [10]: 6.43e-05 min/nM; mHTT levels in HD patient iPSC-derived neurons (mHTT [2]; neurons Q47, HTRF 2B7/MW1, method similar to 5.1): Decreased mHTT levels; wtHTT levels in cortical neurons (wtHTT [11]): did not reduce
5 | O=c1cc(-c2ccccc2)c2c(O)cc(O)cc2o1 [compound 2] | Decreased levels | no decrease | reduced | effectively reduced | did not reduce | significantly improved | decrease | mHTT level in cortices (mHTT [12]): significantly reduced; binding affinity with Q25-GFP (Q25-GFP [13]): no binding affinity; mHTT aggregates in the cortices (mHTT aggregates): No increase in mHTT aggregates; concentration at 2 h [14]: 9.48 ng/g; levels of mHTT in the cortices (mHTT [15]): reduced; levels of mHTT in the striata (mHTT [15]): reduced; level of mHTT in HD patient immortalized fibroblasts (mHTT [16]): reduced; binding with normal ATXN3 protein (MBP-ATXN3-Q28) [17]: did not bind
